The values below are quoted from earlier work in patent publication US20120237563A1, “CONTROLLED-RELEASE FORMULATIONS OF […] AND USES THEREOF” (UNIVERSITY OF FLORIDA RESEARCH […]., priority 2009, published 2012).

For the series the following is noted: clinical studies.

Regarding `COc1ccc(/C=C2\CCCN=C2c2cccnc2)c(OC)c1` [DMXBA, 3-(2,4-dimethoxybenzylidene)-anabaseine], the “Safety of large oral doses” value is given as “without adverse effects”. Also, the Half-life result (oral) is recorded as “two”.
